Structures can show the parent of a compound that is named as a salt.
Legend:
[1] = test system: ARH-77 cells; experiment: Cell viability assay (CellTiter-Glo), ARH-77; format: cell-based; settings: Homo sapiens, ARH-77, 24 hours incubation, 1% FBS, read-out: Average pIC50 by molecule ARH-77 (converted)
Text: (§1) The effect of various compounds of the invention on the viability of OPM-2, MV-4-11 and ARH-77 cell lines was investigated, using the CTG protocol described below.
(§2) OPM-2 and MV-4-11 cell lines are derived from multiple myeloma and acute myeloid leukaemia, respectively. Both cell lines are described in the literature as MCL-1 dependent lines, as opposed to lymphoblast-like ARH-77 cell line, which is described as independent of MCL-1 (Tron A E et al. Nat Commun. 2018; 9: 5341; Caenepeel S et al. Cancer Discov. 2018 December; 8(12):1582-1597).
(§3) Cells (OPM-2, MV-4-11 or ARH-77) were seeded on […] in a growth medium with FBS reduced to 1%. Next, compound stocks were pre-diluted in DMSO and added directly to the cells growth medium (final DMSO concentration: 0.5%). Compound concentrations used in this assay: 1/3 dilutions starting at 30 uM (9 to 12 points).
(§4) After 24 hours of incubation, cell viability was evaluated using CellTiter-Glo Luminescent Cell Viability Assay (Promega, cat #G7572). Luminescence signal was measured using a CLARIOstar Plus Multi-Mode Microplate Reader (574-590 nm).
(§5) Results were normalized to DMSO control.

[2] = test system: MV-4-11 cells; experiment: Cell viability assay (CellTiter-Glo), MV-4-11; format: cell-based; settings: Homo sapiens, MV4-11, 24 hours incubation, 1% FBS, read-out: Average pIC50 by molecule MV-4-11 (converted)
Text: as §1, §2, §3, §4, §5

[3] = target: [MCL-1]-[compound of formula (I)]-[CRBN/DDB1] complex (Homo sapiens, UniProt Q07820+Q96SW2); experiment: AlphaLISA dose response ternary complex formation assay; format: binding; settings: read-out: AlphaLISA dose response Average pEC50 by molecule (converted)
Experimental: The effect of the bifunctional compounds of the invention on the formation of a ternary complex composed of [MCL-1]-[compound of formula (I)]-[CRBN/DDB1] was investigated with two methods: AlphaLISA dose response assay or HTRF ternary complex assay.
Two types of protein solution were prepared: • 40 nM biotinylated hMCL-1, 40 μg/ml AlphaScreen Streptavidin-coated Donor Beads in PBS buffer with 0.1% Tween-20 and 1 mM DTT, • 200 nM 6×His-CRBN/Strep-DDB1, 40 μg/ml AlphaLISA Anti-6×His Acceptor beads in PBS buffer with 0.1% Tween-20 and 1 mM DTT.
The prepared solutions were incubated at room temperature for 45 min and then the solution containing the donor beads was mixed with the solution containing the acceptor beads.
The tested compounds were dispensed onto a white 384-well AlphaPlate 384 SW. DMSO was backfilled to all wells, resulting in a final DMSO content of 2%. Wells containing only DMSO served as background. Next, 10 μl of solution with donor and acceptor beads was added to the wells.
The plate was sealed with transparent film and shaken using a VibroTurbulator for 60 see at room temperature, level 3. The plate was then spun down shortly (10 s, 1000 rcf, room temperature) and incubated at 25° C. for 30 min.
The read-out was performed with PerkinElmer Enspire Multimode Plate Reader (method for AlphaLISA 384-well low volume, Filterset: λexc=680 nm, λem=615 nm).
The results were analyzed as follows: • 1) an average of luminescence for background signal was calculated and used as a negative control; • 2) average of the maximum measured luminescence for 233 was calculated and used as an internal positive control; • 3) raw luminescence values were normalized against positive and negative controls; • 4) concentration points above the hook point were excluded; • 5) EC50 and pEC50 values were determined.

[MCL-1]-[compound of formula (I)]-[CRBN/DDB1] complex, sequence (Q07820 whole entry): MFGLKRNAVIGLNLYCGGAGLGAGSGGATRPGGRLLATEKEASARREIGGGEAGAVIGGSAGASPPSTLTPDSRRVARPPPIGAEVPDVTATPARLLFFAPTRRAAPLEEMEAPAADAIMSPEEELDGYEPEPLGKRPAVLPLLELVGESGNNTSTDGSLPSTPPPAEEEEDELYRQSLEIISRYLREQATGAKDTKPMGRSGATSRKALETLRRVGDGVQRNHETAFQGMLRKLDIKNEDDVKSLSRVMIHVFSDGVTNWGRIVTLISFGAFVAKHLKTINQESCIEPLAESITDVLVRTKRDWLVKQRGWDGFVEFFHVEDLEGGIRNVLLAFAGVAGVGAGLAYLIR
[MCL-1]-[compound of formula (I)]-[CRBN/DDB1] complex, sequence (Q96SW2 whole entry): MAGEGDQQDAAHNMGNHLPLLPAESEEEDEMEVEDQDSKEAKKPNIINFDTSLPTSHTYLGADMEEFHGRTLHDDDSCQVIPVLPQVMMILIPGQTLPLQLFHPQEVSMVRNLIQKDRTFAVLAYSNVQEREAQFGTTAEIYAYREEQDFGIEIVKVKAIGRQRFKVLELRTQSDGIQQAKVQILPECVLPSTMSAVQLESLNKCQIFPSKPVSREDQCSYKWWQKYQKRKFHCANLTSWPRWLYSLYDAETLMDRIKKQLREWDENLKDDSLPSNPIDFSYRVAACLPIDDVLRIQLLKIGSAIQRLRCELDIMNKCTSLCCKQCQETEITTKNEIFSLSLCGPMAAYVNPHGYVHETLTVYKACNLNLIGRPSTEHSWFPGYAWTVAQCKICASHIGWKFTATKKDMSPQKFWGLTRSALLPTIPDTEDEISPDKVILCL
[MCL-1]-[compound of formula (I)]-[CRBN/DDB1] complex, sequence (Q16531 whole entry partner): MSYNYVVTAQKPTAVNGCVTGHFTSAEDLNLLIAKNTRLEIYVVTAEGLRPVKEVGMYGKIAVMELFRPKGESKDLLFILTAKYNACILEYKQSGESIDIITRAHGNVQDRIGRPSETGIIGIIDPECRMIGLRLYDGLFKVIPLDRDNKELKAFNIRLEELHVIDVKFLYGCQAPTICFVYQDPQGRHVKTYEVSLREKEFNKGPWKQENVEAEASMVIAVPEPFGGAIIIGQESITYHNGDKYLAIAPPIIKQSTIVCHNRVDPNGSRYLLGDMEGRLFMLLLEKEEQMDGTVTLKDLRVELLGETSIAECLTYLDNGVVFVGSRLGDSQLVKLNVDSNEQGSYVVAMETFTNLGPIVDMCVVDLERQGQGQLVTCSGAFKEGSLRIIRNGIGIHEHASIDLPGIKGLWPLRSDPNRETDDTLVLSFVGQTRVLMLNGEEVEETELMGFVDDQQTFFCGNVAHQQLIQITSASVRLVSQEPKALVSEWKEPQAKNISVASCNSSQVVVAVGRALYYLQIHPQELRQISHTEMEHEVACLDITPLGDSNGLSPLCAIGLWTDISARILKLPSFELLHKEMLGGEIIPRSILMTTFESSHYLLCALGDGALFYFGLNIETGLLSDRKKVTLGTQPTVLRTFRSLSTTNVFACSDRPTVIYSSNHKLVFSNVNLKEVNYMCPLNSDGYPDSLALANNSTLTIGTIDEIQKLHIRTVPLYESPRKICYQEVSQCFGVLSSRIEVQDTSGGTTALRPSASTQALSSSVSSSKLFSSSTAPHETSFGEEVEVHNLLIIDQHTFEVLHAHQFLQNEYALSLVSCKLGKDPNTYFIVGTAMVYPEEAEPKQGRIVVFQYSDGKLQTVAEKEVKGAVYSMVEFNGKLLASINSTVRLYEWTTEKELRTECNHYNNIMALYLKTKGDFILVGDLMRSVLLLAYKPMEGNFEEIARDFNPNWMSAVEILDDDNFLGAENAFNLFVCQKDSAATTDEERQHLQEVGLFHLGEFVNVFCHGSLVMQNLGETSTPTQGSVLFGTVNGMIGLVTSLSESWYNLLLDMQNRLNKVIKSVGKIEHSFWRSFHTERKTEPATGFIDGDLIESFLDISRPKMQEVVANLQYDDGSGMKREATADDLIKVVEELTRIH

| Compound | IC50 [1] | IC50 [2] | EC50 [3] |
| --- | --- | --- | --- |
| Cc1nn2c(c1-c1c(F)ccc3c(CCCOc4cccc5cc(F)ccc45)c(C(=O)O)n(CCN4CCN(C(=O)COc5cccc6c5CN(C5CCC(=O)NC5=O)C6=O)CC4)c13)CCC2 (stereo not shown) [Compound 225, 1-(2-(4-(2-((2-(2,6-dioxopiperidin-3-yl)-1-oxoisoindolin-4-yl)oxy)acetyl)piperazin-1-yl)ethyl)-6-fluoro-3-(3-((6-fluoronaphthalen-1-yl)oxy)propyl)-7-(2-methyl-5,6-dihydro-4H-pyrrolo[1,2-b]pyrazol-3-yl)-1H-indole-2-carboxylic acid] | > 10000 nM | ≤ 316 nM | < 100 nM |
| Cc1nc2cccc(NCC(=O)N3CCN(CCn4c(C(=O)O)c(CCCOc5cccc6cc(F)ccc56)c5ccc(Cl)c(-c6c(C)nn(C)c6C)c54)CC3)c2cc1C1CCC(=O)NC1=O (stereo not shown) [Compound 287, 6-Chloro-1-{2-[4-(2-{[3-(2,6-dioxopiperidin-3-yl)-2-methylquinolin-5-yl]amino}acetyl)piperazin-1-yl]ethyl}-3-{3-[(6-fluoronaphthalen-1-yl)oxy]propyl}-7-(1,3,5-trimethyl-1H-pyrazol-4-yl)-1H-indole-2-carboxylic acid] | > 3160 nM | ≤ 1000 nM | – |
| Cc1cc(OCCCc2c(C(=O)O)n(CCN3CCN(C(=O)CCOCCOCCOCCOCCOCCOCCNc4cccc5c4C(=O)N(C4CCC(=O)NC4=O)C5=O)CC3)c3c(-c4c(C)nn(C)c4C)c(Cl)ccc23)cc(C)c1Cl (stereo not shown) [Compound 203, 6-chloro-3-[3-(4-chloro-3,5-dimethylphenoxy)propyl]-1-{2-(4-(1-{(2-(2,6-dioxopiperidin-3-yl)-1,3-dioxo-2,3-dihydro-1H-isoindol-4-yl]amino}-3,6,9,12,15,18-hexaoxahenicosanoyl)piperazin-1-yl]ethyl}-7-(1,3,5-trimethyl-1H-pyrazol-4-yl)-1H-indole-2-carboxylic acid] | – | ≤ 1000 nM | < 100 nM |
| Cc1cc(C(=O)NC2CCC(=O)NC2=O)c2nc(C)n(CC(=O)N3CCN(CCn4c(C(=O)O)c(CCCOc5cccc6cc(F)ccc56)c5ccc(Cl)c(-c6c(C)nn(C)c6C)c54)CC3)c2c1 (stereo not shown) [Compound 274, 6-Chloro-1-(2-(4-(2-(4-((2,6-dioxopiperidin-3-yl)carbamoyl)-2,6-dimethyl-1H-benzo[d]imidazol-1-yl)acetyl)piperazin-1-yl)ethyl)-3-(3-((6-fluoronaphthalen-1-yl)oxy)propyl)-7-(1,3,5-trimethyl-1H-pyrazol-4-yl)-1H-indole-2-carboxylic acid] | > 10000 nM | ≤ 100 nM | < 10 nM |
| Cc1nn(C)c(C)c1-c1c(Cl)ccc2c(CCCOc3cccc4cc(F)ccc34)c(C(=O)O)n(CCN3CCN(C(=O)[C@H](C)Oc4cccc5c4C(=O)N([C@@H]4CCC(=O)NC4=O)C5=O)CC3)c12 (single isomer, unassigned) [Compound 320] | > 10000 nM | ≤ 100 nM | – |
| Cc1nn(C)c(C)c1-c1c(Cl)ccc2c(CCCOc3cccc4cc(F)ccc34)c(C(=O)O)n(CCN3CCN(C(=O)Cn4c(C)nc5c(C(=O)NC6CCC(=O)NC6=O)cc(Cl)cc54)CC3)c12 (stereo not shown) [Compound 276, 6-Chloro-1-(2-(4-(2-(6-chloro-4-((2,6-dioxopiperidin-3-yl)carbamoyl)-2-methyl-1H-benzo[d]imidazol-1-yl)acetyl)piperazin-1-yl)ethyl)-3-(3-((6-fluoronaphthalen-1-yl)oxy)propyl)-7-(1,3,5-trimethyl-1H-pyrazol-4-yl)-1H-indole-2-carboxylic acid] | > 10000 nM | ≤ 100 nM | < 100 nM |
| Cc1nn(C)c(C)c1-c1c(Cl)ccc2c(CCCOc3cccc4cc(F)ccc34)c(C(=O)O)n(CCN3CCN(C(=O)[C@@H](C)Oc4cccc5c4C(=O)N([C@H]4CCC(=O)NC4=O)C5=O)CC3)c12 (single isomer, unassigned) [Compound 317] | > 3160 nM | ≤ 31.6 nM | < 100 nM |
| Cc1nn(C)c(C)c1-c1c(Cl)ccc2c(CCCOc3cccc4cc(F)ccc34)c(C(=O)O)n(CCN3CCN(C(=O)COc4c(Cl)ccc5c4CN(C4CCC(=O)NC4=O)C5=O)CC3)c12 (stereo not shown) [Compound 345, 6-Chloro-1-{2-[4-(2-{[5-chloro-2-(2,6-dioxopiperidin-3-yl)-1-oxo-2,3-dihydro-1H-isoindol-4-yl]oxy}acetyl)piperazin-1-yl]ethyl}-3-{3-[(6-fluoronaphthalen-1-yl)oxy]propyl}-7-(1,3,5-trimethyl-1H-pyrazol-4-yl)-1H-indole-2-carboxylic acid] | > 10000 nM | ≤ 100 nM | < 100 nM |
| Cc1nc2c(NCC(=O)N3CCN(CCn4c(C(=O)O)c(CCCOc5cccc6cc(F)ccc56)c5ccc(Cl)c(-c6c(C)nn(C)c6C)c54)CC3)cccc2cc1C1CCC(=O)NC1=O (stereo not shown) [Compound 284, 6-Chloro-1-{2-[4-(2-{[3-(2,6-dioxopiperidin-3-yl)-2-methylquinolin-8-yl]amino}acetyl)piperazin-1-yl]ethyl}-3-{3-[(6-fluoronaphthalen-1-yl)oxy]propyl}-7-(1,3,5-trimethyl-1H-pyrazol-4-yl)-1H-indole-2-carboxylic acid] | > 3160 nM | ≤ 100 nM | < 100 nM |
| Cc1nn(C)c(C)c1-c1c(Cl)ccc2c(CCCOc3cccc4ccccc34)c(C(=O)O)n(CCN3CCN(C(=O)COc4cccc5c4CN(C4CCC(=O)NC4=O)C5=O)CC34CC4)c12 (stereo not shown) [Compound 292, 6-Chloro-1-(2-(7-(2-((2-(2,6-dioxopiperidin-3-yl)-1-oxoisoindolin-4-yl)oxy)acetyl)-4,7-diazaspiro[2.5]octan-4-yl)ethyl)-3-(3-(naphthalen-1-yloxy)propyl)-7-(1,3,5-trimethyl-1H-pyrazol-4-yl)-1H-indole-2-carboxylic acid] | > 10000 nM | ≤ 100 nM | < 10 nM |
| Cc1nn(C)c(COc2ccc(N3CCN(S(=O)(=O)N(C)C)CC3)cc2)c1-c1cccc2c(CCCOc3cccc4ccccc34)c(C(=O)O)n(CCN3CCN(CCCOCCOCCNc4cccc5c4C(=O)N(C4CCC(=O)NC4=O)C5=O)CC3)c12 (stereo not shown) [Compound 247, 7-(5-((4-(4-(N,N-dimethylsulfamoyl)piperazin-1-yl)phenoxy)methyl)-1,3-dimethyl-1H-pyrazol-4-yl)-1-(2-(4-(3-(2-(2-((2-(2,6-dioxopiperidin-3-yl)-1,3-dioxoisoindolin-4-yl)amino)ethoxy)ethoxy)propyl)piperazin-1-yl)ethyl)-3-(3-(naphthalen-1-yloxy)propyl)-1H-indole-2-carboxylic acid trifluoroacetate] | – | – | < 1000 nM |
| Cc1nn(C)c(C)c1-c1c(Cl)ccc2c(CCCOc3cccc4cc(F)ccc34)c(C(=O)O)n(CCN3CCN(C(=O)COc4cccc5c4CN([C@@H]4CCC(=O)NC4=O)C5=O)CC3)c12 [Compound 297, (R)-6-Chloro-1-(2-(4-(2-((2-(2,6-dioxopiperidin-3-yl)-1-oxoisoindolin-4-yl)oxy)acetyl)piperazin-1-yl)ethyl)-3-(3-((6-fluoronaphthalen-1-yl)oxy)propyl)-7-(1,3,5-trimethyl-1H-pyrazol-4-yl)-1H-indole-2-carboxylic acid] | > 10000 nM | ≤ 100 nM | – |
| Cc1nn(C)c(C)c1-c1c(Cl)ccc2c(CCCOc3cccc4ccccc34)c(C(=O)O)n(CCN3CC4CC(C3)N4C(=O)COc3cccc4c3C(=O)N(C3CCC(=O)NC3=O)C4=O)c12 (stereo not shown) [Compound 208, 6-chloro-1-(2-(6-(2-((2-(2,6-dioxopiperidin-3-yl)-1,3-dioxoisoindolin-4-yl)oxy)acetyl)-3,6-diazabicyclo[3.1.1]heptan-3-yl)ethyl)-3-(3-(naphthalen-1-yloxy)propyl)-7-(1,3,5-trimethyl-1H-pyrazol-4-yl)-1H-indole-2-carboxylic acid] | – | – | < 100 nM |
